Here are results for 2 compounds from patent US20250108064A1, “PHOSPHATE PRODRUGS OF CANNABINOIDS” (priority 2021, published 2025).

Structures are written as SMILES. Values after ≈ are worked out from the molar mass of the structure shown. A value given as a limit tells only on which side of the number the result lay.

Data set [1] in a line: Liver microsome stability assay (MLM). Format: in vitro ADME. The conditions noted are these: mouse, mouse liver microsomes, pH 7.4; 3 μM test compound, NADPH; read-out: T 1/2 in MLM. The procedure:
(§1) General Experimental: Human and mouse liver microsomes were purchased from Xenotech at 20 mg/mL. NADPH (Sigma-Aldrich) 10 mM stocks were prepared in deionized water.
Procedure for Liver Microsome Stability Assay: Test compounds and positive controls were dissolved in 100% DMSO to make 10 mM stock solutions. Verapamil (Sigma-Aldrich) and diphenhydramine (Sigma-Aldrich) were used as positive controls for both human liver microsomes (HLM) and mouse liver microsomes (MLM). The 10 mM stock solutions of test and control compounds were further diluted in potassium phosphate buffer (100 mM, pH 7.4) to 500 μM to ensure that the organic solvent content was <0.2%. The liver microsome (HLM or MLM) assay was prepared in a 1.5 mL Eppendorf tube with a final volume of 1100 μL for duplicate runs. Each reaction contained phosphate buffer (928.4 μL), liver microsomes (55 μL), and test compound (6.6 μL of 500 μM), resulting in a final concentration of 3 μM for the test compound. The reaction was initiated with 110 μL of 10 mM NADPH. Aliquots (100 μL) were removed in duplicate at 0, 5, 10, 15, and 30 min and quenched in […] of 100% cold methanol which contained internal standard (ISTD: d5-7-ethoxy coumarin 2 μM). The aliquots were centrifuged at 12,000 g for 5 min, and the supernatant was transferred and placed in an LC-MS vial. Each time point was assessed by LC-MS/MS, and the area under the m/z curve (AUC), based on the MRM transition, was integrated w.r.t the ISTD. Positive controls were conducted at a final volume of 550 μL to enable a single run for each time point. Negative controls in the absence of NADPH were performed with the test and control compounds, respectively, at a final volume of 150 μL and measured at the most prolonged time point. Control compounds were processed and analyzed like test compounds. […] Half-life (T1/2) was calculated using the data obtained from LC-MS/MS and by plotting ln (% remaining of the parent prodrug) versus time and performing linear regression to determine slope. […]
In general terms: Liver microsomes are vesicles of endoplasmic reticulum, rich in cytochrome P450 enzymes.

The nature of data set [2]: physchem. Format: physicochemical. The conditions noted are these: aqueous buffer, kinetic from dmso stock; nephelometry, PBS pH 7.0-7.3, 1% DMSO, 25° C., 90 min. The procedure:
General Experimental: Nephelometry experiments were performed using untreated Corning® Costar® 96-well black polystyrene plates with clear flat bottoms. Sample stock solutions and serial dilutions were prepared with DriSolv® DMSO purchased from MilliporeSigma. All 100-fold dilutions and replicate experiments were prepared using Gibco® Dulbecco's phosphate-buffered saline (DPBS, no calcium, no magnesium) with a pH range of 7.0-7.3 as aqueous media. […] Nephelometry data was obtained using a NEPHELOstar® microplate reader and processed with MARS data analysis software from BMG LabTech.
Procedure for Nephelometry Experiments: Tested compounds were dissolved in 100% DMSO to make stock solutions of specified concentrations, ranging from 10 mM minimum up to 50 mM maximum. The sample then underwent serial dilution in a 96-well plate (Corning® Costar®). Well A1 of the plate contained 100% DMSO. […] Using a 12 channel multichannel pipette, 2.5 μL of sample from row A was transferred to each well in row B through row H of the plate. Next, 30 μL of PBS (pH=7.0-7.3) was added to row B through row H, providing each well with 32.5 μL. The plate was then incubated for 30 sec with shaking. Finally, 217.5 μL of PBS buffer was added to row B through row H, and the entire plate was incubated with shaking at 25° C. for 90 min. Note: The final volume of DMSO in actual experiments with PBS buffer was 1% throughout the plate. After 90 min, the 96-well plate was analyzed with a NEPHELOstar® instrument and the data was processed with MARS data analysis software.

Data set [3] can be described thus: Liver microsome stability assay (HLM). Format: in vitro ADME. As to conditions: human, microsomes, pH 7.4; 3 μM test compound, NADPH; read-out: T½ in HLM. The procedure: as §1
Procedure for Liver Microsome Stability Assay: Test compounds and positive controls were dissolved in 100% DMSO to make 10 mM stock solutions. Verapamil (Sigma-Aldrich) and diphenhydramine (Sigma-Aldrich) were used as positive controls for both human liver microsomes (HLM) and mouse liver microsomes (MLM). The 10 mM stock solutions of test and control compounds were further diluted in potassium phosphate buffer (100 mM, pH 7.4) to 500 μM to ensure that the organic solvent content was <0.2%. The liver microsome (HLM or MLM) assay was prepared in a 1.5 mL Eppendorf tube with a final volume of 1100 μL for duplicate runs. Each reaction contained phosphate buffer (928.4 μL), liver microsomes (55 μL), and test compound (6.6 μL of 500 μM), resulting in a final concentration of 3 μM for the test compound. The reaction was initiated with 110 μL of 10 mM NADPH. Aliquots (100 μL) were removed in duplicate at 0, 5, 10, 15, and 30 min and quenched in […] of 100% cold methanol which contained internal standard (ISTD: d5-7-ethoxy coumarin 2 μM). The aliquots were centrifuged at 12,000 g for 5 min, and the supernatant was transferred and placed in an LC-MS vial. Each time point was assessed by LC-MS/MS, and the area under the m/z curve (AUC), based on the MRM transition, was integrated w.r.t the ISTD. Positive controls were conducted at a final volume of 550 μL to enable a single run for each time point. Negative controls in the absence of NADPH were performed with the test and control compounds, respectively, at a final volume of 150 μL and measured at the most prolonged time point. Control compounds were processed and analyzed like test compounds. Each time point was run in triplicates on LC-MS/MS followed by in-between blank washes to avoid the carryover and to equilibrate the column. Half-life (T1/2) was calculated using the data obtained from LC-MS/MS and by plotting ln (% remaining of the parent prodrug) versus time and performing linear regression to determine slope. Slope=−k and T1/2=0.693/k for first-order kinetics.

The nature of data set [4]: Plasma stability assay (human plasma). Format: in vitro ADME. As to conditions: 37° C., unit min, read-out: T½ in human plasma (converted). How it is done: General Experimental: Procaine and Procainamide were purchased from Sigma-Aldrich. Human plasma was obtained from BioIVT (Cat. No. […]2N) and 1X Dulbecco's PBS (pH 7.4, Gibco) was obtained from Thermos Fischer. Stock solutions were prepared in 100% DMSO, and suitable dilutions of target analytes were prepared in methanol for method development.
Procedure for Plasma Stability Assay: Test compounds were dissolved in DMSO to make a stock solution of 10 mM and then diluted to 500 μM in buffer (or 70% MeOH). Human plasma was thawed at ambient temperature and is aliquoted ([…]) to a 1.5 mL Eppendorf tube in duplicates (A and B) for each compound. Plasma was incubated at 37° C. for 10 minutes in an incubator shaker at 150 rpm; the reaction was initiated by the addition of the test compound (6.0 μL) and vortex mixing. The total reaction volume was 1000 μL where the final organic solvent concentrations were 0.6% MeOH and 0.03% DMSO. The spiked plasma samples were incubated at 37° C. for 4 hrs. The reactions were terminated at time points 0, 15, 30, 60, 120, 180, and 240 min by taking a 100 μL aliquot from the test incubation mixture and immediately quenching it in ice-cold acetonitrile containing internal standard (150 μL with 2 μM ISTD), followed by a quick vortex mixing. In addition, matrix blank was prepared by adding acetonitrile solutions containing ISTD to plasma samples without any of the analytes or control compounds. Also, an additional tube was made to measure compound degradation in PBS buffer. The samples were centrifuged at 15000 rpm for 25 min at 4° C. The supernatant was transferred to an LC-MS vial for analysis by LC/MS-MS. Each time point was run in duplicates followed by in-between blank washes to avoid the carryover and to equilibrate the column. Half-life (T1/2) was calculated using the data obtained from LC-MS/MS and by plotting ln (% remaining of the parent prodrug) versus time and performing linear regression to determine slope. Slope=−k and T1/2=0.693/k for first-order kinetics.
These positive controls were run in parallel to test the systems for competency.

The nature of data set [5]: Plasma stability (mouse plasma). Format: in vitro ADME. As to conditions: read-out: T½ in mouse plasma (converted).
Data set [6] in a line: Simulated Gastric Fluid stability assay. As to conditions: simulated gastric fluid (SGF) with pepsin, pH 1.2; SGF pH about 1.2 with pepsin, 37° C.; read-out: T½ in SGF (converted). Format: in vitro ADME. The procedure: General Experimental: Simulated Gastric Fluid (SGF) is a pH 1.2 HCl solution with purified pepsin (800-2500 units of activity) (Test Solutions, The United States Pharmacopoeia (USP), 2008). SGF was prepared according to a procedure described in Test Solution—USP and other published articles (Bioorganic Chemistry, 49 (2013), 40-48). Sodium chloride 0.20 g and purified pepsin 0.32 g (Sigma), derived from porcine stomach mucosa with an activity of 800 to 2500 units per mg of protein, were dissolved in 0.70 mL hydrochloric acid and sufficient water to make 100 mL. […] The SGF solution prepared was used for in vitro studies to evaluate the prodrug stability.
At specified time intervals, aliquots (100 μL) were withdrawn and added to pre-cooled 100% acetonitrile (200 μL spiked with ISTD) and mixed well by vortex mixing for 2 min. The mixture was centrifuged at 13000 rpm for 15 min at 4° C.

For data set [7] the following is noted: daily oral doses of 10 mg/kg chronically administered; cited from earlier work.

As a reminder, the solubility is the concentration that dissolves in the medium under given conditions. Turning to `C=C(C)[C@@H]1CCC(C)=C[C@H]1c1c(O)cc(CCCCC)cc1OC(=O)COP(=O)(O)O.N.N` [7a, 2-(((1′R,2′R)-6-hydroxy-5′-methyl-4-pentyl-2′-(prop-1-en-2-yl)-1′,2′,3′,4′-tetrahydro-[1,1′-biphenyl]-2-yl)oxy)-2-oxoethyl phosphate di-ammonium salt], the half-life at 3 μM in data set [1] came out at 6.1 min. This compound came in with a solubility in data set [2] of more than 500 µM. Further, the half-life in data set [3] was 59 min; in data set [4], 20 min; in data set [5] (unit min), 4.5 min. Besides, in data set [6], the half-life at 2 mM is 315 min.

Take `C=C(C)[C@@H]1CCC(C)=C[C@H]1c1c(O)cc(CCCCC)cc1O` [CBD, Cannabidiol, reference compound]: the half-life at 3 μM in data set [1] stood at 2.9 min. For the same compound, the solubility in data set [2] was 16.9 ± 0.55 µM (≈ 5.32 µg/mL). The half-life in data set [3] was 5.8 min; in data set [5] it was 576 min. The mean plasma concentration in data set [7] is 5.9 to 11.2 ng/mL. Further, the half-life at 2 mM in data set [6] is more than 180 min.
